Results reported in patent US11897918B2, “Compositions and methods to increase production” (priority 2014, dated 2024).
Entries after “also recorded” stand apart in the source; their conditions may differ.

Columns and labels:
5HT7 receptor = biological target: T1, 5HT7 receptor (Canis lupus familiaris, UniProt A0A8I3S709); test: Dependence of HA enhancement on 5HT7 receptor activity; assay type: cell-based; details: B/Mass in DM134 media, 65 hrs HA yield by ELISA
T1 construct: endogenous in cells; host or cells: MDCK 33016PF suspension cells (inferred)
From the text: FIG. 15 provides a graph showing that Flu HA yield enhancement by AFZ077 is dependent on decreasing activity of the 5HT7 receptor. Flu B strain (B/Mass) in DM134 media; 65 hrs HA yield by ELISA (μg/ml).
Studies based on Formula 8 (e.g., Compound E) were expanded to identify potential compounds that may share certain mechanisms of action, as summarized in Table 5 below.

[1] = test system: A/Victoria/361/2011 (IVR-165) (high-expressing); test: ambr15 mini-bioreactor and shake flask comparison, A strain; assay type: cell-based, influenza A H3N2; details: CDM and DM134 media, shake flasks and 15 ml bioreactors; listed as AFZ077
[2] = test system: B/Massachusetts/2/2012 (low-expressing); test: ambr15 mini-bioreactor and shake flask comparison, B strain; assay type: cell-based, influenza B; details: CDM and DM134 media, shake flasks and 15 ml bioreactors
Procedure: The two lead compounds were further tested in the commercially available small-scale bioreactor system, ambr15™ (TAP Biosystems). The ambr15 system mimics the characteristics of classical bioreactors at microscale (10-15 ml), controlled by an automated workstation, which enables the rapid evaluation of multiple bioreactor cultures at microscale.
To test both lead compounds were tested side-by-side under controlled conditions, with two infection media formulations (DM134 and CDM) and two flu strains, A/Victoria/361/2011 (IVR-165) (high-expressing) and B/Massachusetts/2/2012 (low-expressing). The infection parameters used in the experiment were as follows: seeding density was 1.0×10^6 cells/ml or 2.5×10^6 cells/mL; pH was 7.1+/−0.02 (pH control by dual control with 0.05N NaOH and CO2 gas); DO was 50% (range 50-80%), controlled by O2 gas; agitation was 1000 rpm (local control); temperature was 34.0° C., locally monitored with bioreactor controller probe; vessel type was Spargeless, extended temperature vessels; and, aeration rate during run was 1 mL/min.
The quantification of HA was carried out by ELISA then was subsequently confirmed by HPLC. It was also shown that AFZ077 was able to boost HA yield in the DM134 medium with both low (1×10^6 per mL) and high (2.5×10^6 per mL) infection cell densities in this system. […] Overall, greater enhancement effect seen for low-expressing strains. […]

[3] = 0 and 60 hr, mass spec
[4] = test system: influenza H3N2 strain IVR-165 (A/Victoria/361/2011); assay type: cell-based
A and B strains = assay type: cell-based, influenza; details: DM134 medium, 2.5×10^6 per mL
B/Massachusetts/02/2012 = test: Ambr 250 mL bioreactor, B strain; assay type: cell-based, influenza B; details: any of the doses tested, ambr250
Procedure: FIG. 13 provides a graph showing HA yields in the B strain tested with BYF589 at concentrations as indicated.
FIG. 14 provides a graph showing HA yields in the B strain tested with AFZ077 at concentrations as indicated.
The results were confirmed using 3 different viruses (a high-, medium-, and poor-expressing strains). […] To confirm these findings in a larger-scale system, TD Ambr™ 250 mL bioreactors were employed. Both of the lead compounds (as well as DMSO alone as negative control, and, no compound/no DMSO as double-negative control) were tested with a high- and low-expressing strains to determine if the observed enhancement in the small-scale cultures can be reproduced in a larger-scale system. The following parameters were used: Spent DM134:Fresh PFM (1:3); Virus Strains were A/Victoria/361/2011 (IVR-165) and B/Massachusetts/02/2012; MOI was 10^−5 for A/Victoria IVR-165 and 10^−4 for B/Massachusetts; ICD: 2.0e6-3.0e6 cells/mL; N-1 Process: 1B (no Medium Exchange); and, Harvest Time was 65-72 hours post-infection. HA yields were measured by two methods: RP-HPLC and HA-ELISA. […] Note that the error bars represent one standard deviation from the mean, to illustrate variability of the HA-ELISA assay between assay repeats.

MDCK cells = test: Cell viability, VI-CELL trypan blue exclusion; assay type: cell-based
Procedure: Cell viability assays were performed using MDCK cells treated with 1 uM sulphonamide or DMSO control. Cell viability was monitored over time up to 60 hrs using a VI-CELL machine (Beckman Coulter)(cell viability measured based on trypan blue exclusion). The sulphonamide analog used herein is not a marketed drug, therefore toxicity was conducted to identify cell viability over the course of incubation at the highest tested concentration of 10 μM and 60 hours of contact. […] At least 91% viability is detected in cells treated with sulphonamide.

[5] = test system: virus-infected host cell culture; assay type: cell-based, influenza; details: versus control without compound
cellular cholesterol = test: Total cellular cholesterol (Amplex Red); assay type: cell-based
Procedure: Possible effects of BYF589 as well as various enzyme inhibitors of the pathway on the cell viability and total cellular cholesterol levels were examined. Tested samples included DMSO, BYF589 (1 μM), MEV (100 μM), FTI (0.5 μM), ZA (1 μM) and GTI (0.5 μM).
Free cholesterol is oxidized by cholesterol oxidase to form a cholesterol ketone and H2O2, which then reacts with Amplex Red+HRP to produce the fluorescent product resorufin.

[6] = test system: influenza in MDCK 33016PF cells; assay type: cell-based; details: MEV plus BYF
MDCK 33016PF cells = details: 24 hours; BYF589 1 μM, MEV 100 μM, FTI 0.5 μM, ZA 1 μM, GTI 0.5 μM
influenza H3N2 virus = details: MOI of 10^−3, 24 hours post infection; cited from earlier work
Subtype A/Texas X223A = assay type: cell-based, influenza A; details: 0.05 μM
Subtype AH3N2 = test: SAR study of analogues, HA-ELISA; details: 0.05 μM, FIG. 7

T1 sequence (A0A8I3S709 entry or part of it): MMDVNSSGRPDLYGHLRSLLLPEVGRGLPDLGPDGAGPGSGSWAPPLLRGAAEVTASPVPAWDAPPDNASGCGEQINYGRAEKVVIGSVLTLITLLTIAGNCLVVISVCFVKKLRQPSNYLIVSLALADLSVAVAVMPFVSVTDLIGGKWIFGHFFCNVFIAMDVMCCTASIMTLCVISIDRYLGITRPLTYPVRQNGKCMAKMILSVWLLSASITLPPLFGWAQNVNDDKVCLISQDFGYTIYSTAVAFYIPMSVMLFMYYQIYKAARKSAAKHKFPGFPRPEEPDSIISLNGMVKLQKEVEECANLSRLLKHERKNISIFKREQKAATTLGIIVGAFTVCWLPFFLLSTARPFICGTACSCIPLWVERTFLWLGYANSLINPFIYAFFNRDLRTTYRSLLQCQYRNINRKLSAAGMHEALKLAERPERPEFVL

## Cc1cccc(S(=O)(=O)N2CCC[C@@H]2CCN2CCC(C)CC2)c1 [Compound E]
5HT7 receptor
  HA enhancing effect in presence of serotonin (5HT): can be abrogated by adding serotonin (5HT)
[1]
  HA yield enhancement, high-expressing A strain: much greater enhancement in HA yield; also recorded: Only AFZ077 enhanced yield
[2]
  HA yield enhancement, low-expressing B strain: boosts HA yield
[3]
  loss of compound in media or media+MDCK cells: No loss of compounds was observed
[4]
  HA yield before the decrease (earlier addition): about 20 μg/ml
  HA yield, compound added 6 hours post infection: about 5 μg/ml
A and B strains
  HA yield over original yields, high ICD format with AFZ treatment: ~4 fold
B/Massachusetts/02/2012
  increase in HA yield over the controls: no significant increase in HA yield
MDCK cells; monitored up to 60 hrs
  impact on cell viability: Neither sulphonamide nor pitavastatin had a negative impact on cell viability
MDCK cells; up to 10 μM and 60 hours of contact
  cell viability: At least 91%
[5]
  increase in HA yield at 24 hours, compound added at T=2, 4: approximately 4 fold
  increase in HA yield at 24 hours, compound added at T=6: no significant increase
  increase in HA yield at 24 hours, compound added at time of infection (T=0): approximately 4 fold

## CC(O)(CCO)CC(=O)O (centres unmarked) [MEV, Mevalonate]
Cellular cholesterol; MEV plus BYF
  cellular cholesterol levels, in combination with BYF: does not replenish cellular cholesterol levels
Cellular cholesterol; normalized to DMSO
  cellular cholesterol levels, compound alone: no effect on cellular cholesterol levels
[6]
  HA yield enhancement, in combination with BYF: reduces HA yield enhancement
MDCK 33016PF cells
  effect on cell viability: no negative effect on cell viability

## COc1ccc(C2=N[C@@H](c3ccc(Cl)cc3)[C@@H](c3ccc(Cl)cc3)N2C(=O)N2CCNC(=O)C2)c(OC(C)C)c1 [Nutlin-3]
Influenza H3N2 virus
  copies of viral genome in the supernatant compared with control: up to nineteen times more copies of viral genome

## CC(C)c1nc(N(C)S(C)(=O)=O)nc(-c2ccc(F)cc2)c1/C=C/[C@@H](O)C[C@@H](O)CC(=O)O [Rosuvastatin, bis[(E)-7-[4-(4-fluorophenyl)-6-isopropyl-2-[methyl(methylsulfonyl)amino]pyrimidin-5-yl](3R,5S)-3,5-dihydroxyhept-6-enoic acid]]
Subtype A/Texas X223A
  HA yield compared with other commercially available statins: did not produce the yield potential of comparative statins

## CC(C)n1c(/C=C/[C@@H](O)C[C@@H](O)CC(=O)O)c(-c2ccc(F)cc2)c2ccccc21 [fluvastatin, (3R, 5S, 6E)-7-[3-(4-fluorophenyl)-1-(propan-2-yl)-1H-indol-2-yl]-3,4-dihydroxyhept-6-enoic acid]
Subtype AH3N2
  HA yield compared with pitavastatin: performed even better than pitavastatin
